Measured values taken from the NIST ThermoML archive (doi:10.1021/je901020a).
Values joined by “and” are separate entries in the source; they are usually repeats but may differ in a detail not shown here. Identical values can stand only once.

Key:
[1] = 101 kPa, Liquid; for speed of sound: Pulse-echo method
[2] = refractive index (Na D-line) (dimensionless); details: 101.33 kPa, Liquid, Standard Abbe refractometry
[3] = refractive index (Na D-line) (dimensionless); xn = mol fraction of the nth substance listed; details: 101 kPa, Liquid, Standard Abbe refractometry
[4] = xn = mol fraction of the nth substance listed; details: 101 kPa, Liquid; for speed of sound: Pulse-echo method

C1CCCCCCC1 [cyclooctane]
Details | mass density, [1] [kg/m3] | refractive index, [2] | speed of sound, [1]
298.15 K | 831.5 | 1.45598 | 1391 m/s
313.15 K | 819.2 | 1.44877 | 1326 m/s and 1325 m/s

CC1CCCCC1 [methylcyclohexane]
Details | mass density, [1] | refractive index, [2] | speed of sound, [1] [m/s]
298.15 K | 765 kg/m3 and 765.1 kg/m3 | 1.42062 | 1215
313.15 K | 751.9 kg/m3 | 1.41274 and 1.41274 | 1150

Cc1cc(C)cc(C)c1 [1,3,5-trimethylbenzene]
Details | mass density, [1] [kg/m3] | refractive index, [2] | speed of sound, [1] [m/s]
298.15 K | 861.1 | 1.49693 | 1336
313.15 K | 848.8 | 1.48923 | 1277

C1CCCC1 [cyclopentane]
Details | mass density, [1] [kg/m3] | refractive index, [2] | speed of sound, [1] [m/s]
298.15 K | 740 | 1.40292 | 1204
313.15 K | 725 | 1.39456 | 1130

Cc1ccccc1C [1,2-dimethylbenzene]
Details | mass density, [1] [kg/m3] | refractive index, [2] | speed of sound, [1]
298.15 K | 875.4 | 1.50262 | 1350 m/s
313.15 K | 862.9 | 1.49466 | 1290 m/s and 1289 m/s

CC1CCCCC1 [methylcyclohexane] + Cc1ccc(C)cc1
Details | mass density, [4] [kg/m3] | refractive index, [3] | speed of sound, [4] [m/s]
298.15 K, x1 = 0.0513 | 851.4 | 1.48906 | 1303
298.15 K, x1 = 0.0979 | 846.7 | 1.48531 | 1297
298.15 K, x1 = 0.1917 | 837.2 | 1.47789 | 1285
298.15 K, x1 = 0.3009 | 826.5 | 1.46944 | 1272
298.15 K, x1 = 0.3971 | 817.3 | 1.46214 | 1262
298.15 K, x1 = 0.4963 | 808 | 1.4548 | 1252
298.15 K, x1 = 0.5987 | 798.8 | 1.44757 | 1243
298.15 K, x1 = 0.6966 | 789.9 | 1.44052 | 1234
298.15 K, x1 = 0.7958 | 781.6 | 1.43389 | 1227
298.15 K, x1 = 0.8922 | 773.4 | 1.42739 | 1221
298.15 K, x1 = 0.9501 | 768.9 | 1.42377 | 1217
298.15 K, x1 = 1 | 765 | 1.42062 | 1215
313.15 K, x1 = 0.0506 | 838.4 | 1.48121 | 1242
313.15 K, x1 = 0.1051 | 832.9 | 1.4771 | 1234
313.15 K, x1 = 0.204 | 823.1 | 1.46914 | 1221
313.15 K, x1 = 0.3096 | 812.6 | 1.46083 | 1209
313.15 K, x1 = 0.4064 | 803.4 | 1.45361 | 1198
313.15 K, x1 = 0.5061 | 794 | 1.44635 | 1188
313.15 K, x1 = 0.605 | 785.1 | 1.43928 | 1179
313.15 K, x1 = 0.7057 | 776.2 | 1.43227 | 1170
313.15 K, x1 = 0.8112 | 767.2 | 1.42509 | 1162
313.15 K, x1 = 0.9095 | 759 | 1.41853 | 1155
313.15 K, x1 = 0.9599 | 755 | 1.41538 | 1152
313.15 K, x1 = 1 | 751.9 | 1.41274 | 1150

Cc1ccc(C)cc1 [1,4-dimethylbenzene]
Details | mass density, [1] [kg/m3] | refractive index, [2] | speed of sound, [1] [m/s]
298.15 K | 856.6 | 1.49312 | 1310
313.15 K | 843.5 | 1.48444 | 1248

CC1CCCCC1 [methylcyclohexane] + Cc1ccccc1C
Details | mass density, [4] [kg/m3] | refractive index, [3] | speed of sound, [4] [m/s]
298.15 K, x1 = 0.0558 | 868.7 | 1.49758 | 1340
298.15 K, x1 = 0.0973 | 863.5 | 1.49375 | 1333
298.15 K, x1 = 0.1875 | 852.9 | 1.48587 | 1318
298.15 K, x1 = 0.2979 | 839.7 | 1.47605 | 1300
298.15 K, x1 = 0.4084 | 827 | 1.46659 | 1283
298.15 K, x1 = 0.4965 | 817.1 | 1.45929 | 1271
298.15 K, x1 = 0.5946 | 806.3 | 1.45128 | 1259
298.15 K, x1 = 0.6948 | 795.5 | 1.44332 | 1246
298.15 K, x1 = 0.7944 | 785.2 | 1.43568 | 1235
298.15 K, x1 = 0.8912 | 775.6 | 1.42852 | 1225
298.15 K, x1 = 0.9497 | 769.9 | 1.42429 | 1219
298.15 K, x1 = 1 | 765 | 1.42062 | 1215
313.15 K, x1 = 0.049 | 856.8 | 1.49036 | 1281
313.15 K, x1 = 0.0983 | 850.8 | 1.48589 | 1272
313.15 K, x1 = 0.1972 | 838.9 | 1.47705 | 1255
313.15 K, x1 = 0.2832 | 828.7 | 1.46962 | 1241
313.15 K, x1 = 0.403 | 814.8 | 1.45951 | 1222
313.15 K, x1 = 0.5001 | 803.8 | 1.4514 | 1208
313.15 K, x1 = 0.598 | 793 | 1.44349 | 1195
313.15 K, x1 = 0.6977 | 782.3 | 1.43558 | 1182
313.15 K, x1 = 0.7947 | 772.2 | 1.4281 | 1171
313.15 K, x1 = 0.9013 | 761.5 | 1.42003 | 1160
313.15 K, x1 = 0.9474 | 756.9 | 1.4165 | 1154
313.15 K, x1 = 1 | 751.9 | 1.41274 | 1150

C1CCCCC1 [cyclohexane] + Cc1ccc(C)cc1
x1 = 1
Details | mass density, [4] [kg/m3] | refractive index, [3] | speed of sound, [4] [m/s]
298.15 K | 773.9 | 1.4236 | 1255
313.15 K | 759.6 | 1.41516 | 1182

Cc1ccc(C)cc1 [1,4-dimethylbenzene] + C1CCCCCCC1
x2 = 0
Details | mass density, [4] [kg/m3] | refractive index, [3] | speed of sound, [4] [m/s]
298.15 K | 856.6 | 1.49312 | 1310
313.15 K | 843.5 | 1.48444 | 1248

CC1CCCCC1 [methylcyclohexane] + Cc1cc(C)cc(C)c1
x1 = 1
Details | mass density, [4] [kg/m3] | refractive index, [3] | speed of sound, [4] [m/s]
298.15 K | 765.1 | 1.42062 | 1215
313.15 K | 751.9 | 1.41274 | 1150

Cc1cc(C)cc(C)c1 [1,3,5-trimethylbenzene] + C1CCCC1
x2 = 0
Details | mass density, [4] [kg/m3] | refractive index, [3] | speed of sound, [4] [m/s]
298.15 K | 861.1 | 1.49693 | 1336
313.15 K | 848.8 | 1.48923 | 1277

Cc1ccccc1C [1,2-dimethylbenzene] + CC1CCCCC1
x2 = 0
Details | mass density, [4] [kg/m3] | refractive index, [3] | speed of sound, [4] [m/s]
298.15 K | 875.4 | 1.50262 | 1350
313.15 K | 862.9 | 1.49466 | 1289
